From patent US8535696B2, “Treating eczema and/or psoriasis” (Lypanosys Pte Limited, priority 2000, dated 2013)

Tests used:
[1] = Trials with patients using dosage forms of cetyl myristate alone or with cetyl palmitate; assay type: in vivo, human; details: variety of patients, cetyl myristate alone
[2] = laboratory experiments, www.gcinutrients.com; cited from earlier work

In the case of CCCCCCCCCCCCCCCCOC(=O)CCCCCCCCCCCCC [cetyl myristate], the “relief from the symptoms of IBS and/or IBD” value [1] is listed as “favourable responses” and the anti-arthritic activity [2] is listed as “negligible”.
